Patent publication US20220356174A1, “PYRIDIN-2-ONE COMPOUNDS USEFUL AS SMARCA2 ANTAGONISTS” (Epizyme, Inc., priority 2018, published 2022)
pIC50: −log10 of the molar value. Read-outs that look alike come from different tables or passages of the source.

Columns and labels:
FL-SMARCA4 = FL-SMARCA4 (Homo sapiens, UniProt P51532); assay: SMARCA4 ATPase activity assay (ADP-Glo, chicken mononucleosome substrate)
SMARCA2 = target: T1, SMARCA2 (Homo sapiens, UniProt P51531); assay: SMARCA2 FRET nucleosome remodeling activity assay; type: biochemical
T1 construct: FLAG tag (YKDDDDK) (C); made in house; host or cells: Sf21 insect cells (baculovirus, pFastBacI)
T1 sequence (P51531 with tags, fused parts or gaps): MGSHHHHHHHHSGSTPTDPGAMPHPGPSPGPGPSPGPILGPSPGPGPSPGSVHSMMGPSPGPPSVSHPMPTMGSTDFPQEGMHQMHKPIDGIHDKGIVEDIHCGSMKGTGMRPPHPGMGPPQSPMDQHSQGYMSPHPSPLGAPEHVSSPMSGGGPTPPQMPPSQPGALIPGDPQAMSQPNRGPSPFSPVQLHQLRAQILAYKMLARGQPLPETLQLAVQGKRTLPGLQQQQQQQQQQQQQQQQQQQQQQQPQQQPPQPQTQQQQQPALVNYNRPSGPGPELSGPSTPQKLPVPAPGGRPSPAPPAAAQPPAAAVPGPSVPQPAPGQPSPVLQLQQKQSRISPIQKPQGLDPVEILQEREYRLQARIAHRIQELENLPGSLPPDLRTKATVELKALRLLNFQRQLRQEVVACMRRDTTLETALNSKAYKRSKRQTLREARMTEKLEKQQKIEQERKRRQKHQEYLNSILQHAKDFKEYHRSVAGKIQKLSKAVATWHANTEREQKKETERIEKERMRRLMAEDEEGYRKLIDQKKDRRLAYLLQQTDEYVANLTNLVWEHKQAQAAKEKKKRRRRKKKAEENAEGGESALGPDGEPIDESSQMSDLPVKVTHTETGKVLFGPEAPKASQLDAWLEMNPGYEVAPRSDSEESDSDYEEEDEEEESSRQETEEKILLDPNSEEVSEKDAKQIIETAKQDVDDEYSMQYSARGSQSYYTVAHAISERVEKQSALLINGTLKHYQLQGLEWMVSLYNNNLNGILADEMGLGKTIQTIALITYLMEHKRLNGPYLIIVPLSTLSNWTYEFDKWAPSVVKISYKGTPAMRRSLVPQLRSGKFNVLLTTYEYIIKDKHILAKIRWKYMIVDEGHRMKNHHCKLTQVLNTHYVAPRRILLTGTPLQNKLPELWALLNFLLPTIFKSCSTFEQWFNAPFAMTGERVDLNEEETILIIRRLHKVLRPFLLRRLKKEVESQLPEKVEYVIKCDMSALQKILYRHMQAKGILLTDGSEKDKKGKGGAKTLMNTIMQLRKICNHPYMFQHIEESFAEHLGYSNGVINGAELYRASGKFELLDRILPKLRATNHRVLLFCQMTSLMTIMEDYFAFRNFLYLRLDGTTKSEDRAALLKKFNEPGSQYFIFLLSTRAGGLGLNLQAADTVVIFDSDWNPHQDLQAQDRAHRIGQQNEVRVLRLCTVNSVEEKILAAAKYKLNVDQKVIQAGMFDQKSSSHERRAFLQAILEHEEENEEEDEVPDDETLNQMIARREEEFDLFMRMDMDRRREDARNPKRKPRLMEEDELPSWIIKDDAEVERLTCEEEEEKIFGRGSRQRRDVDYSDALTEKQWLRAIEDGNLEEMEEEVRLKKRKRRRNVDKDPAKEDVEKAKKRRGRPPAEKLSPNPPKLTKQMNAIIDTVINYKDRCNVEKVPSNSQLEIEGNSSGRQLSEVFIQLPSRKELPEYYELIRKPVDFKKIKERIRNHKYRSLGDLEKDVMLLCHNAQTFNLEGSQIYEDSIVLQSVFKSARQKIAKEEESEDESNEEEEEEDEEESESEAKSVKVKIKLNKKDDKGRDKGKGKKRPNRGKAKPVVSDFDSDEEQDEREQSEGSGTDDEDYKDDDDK
Description: The SMARCA2 remodeling assay was initiated by the addition of 2 uL of a nucleosome remodeling assay substrate and ATP mixture (final volume=10 uL). […] The assays were terminated after 15 minutes by the addition of 2 uL EDTA (final concentration of 25 mM). The SMARCA2 remodeling activity was determined by measuring the fluorescence ratio of the Cy3 and Cy5 labels ([…]). The remodeling of the nucleosome substrate causes an increase in the spacing between the Cy3 and Cy5 labels and therefore a reduction in FRET and an increase in Cy3/Cy5 fluorescence ratio.

[1] = target: T2, FL-SMARCA2 (full-length human SMARCA2 isoform 1) (Homo sapiens, UniProt P51531); assay: SMARCA2 ATPase activity assay (ADP-Glo, chicken mononucleosome substrate); type: biochemical; details: ATPase assay, enzyme 5 nM, ATP 250 uM, chicken mononucleosome 10 nM, 30 min preincubation
T2 construct: FLAG tag (YKDDDDK) (C); made in house; host or cells: Sf21 insect cells (baculovirus, pFastBacI)
T2 sequence (P51531 with tags, fused parts or gaps): as above

H358 cells = assay: High-throughput proliferation (HTP) assay for H358 cells (CellTiter-Glo, 7 days); type: cell-based; details: Homo sapiens, NCI-H358, 168 h, read-out: H358 SMARCA2 IC50
Summary of the method: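 Cells were plated at 1,000 cells/well in RPMI 1640 + 10% HI-FBS + 1% pen/strep on pre-dispensed compound and incubated 7 days at 37 °C, 5% CO2. Viability was read as ATP luminescence with CellTiter-Glo after 30 min at RT. DMSO served as 0% and 10 µM doxorubicin as 100% inhibition for EC50/IC50.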

A549 cells = assay: High-throughput proliferation (HTP) assay for A549 cells (CellTiter-Glo, 7 days); type: cell-based; details: Homo sapiens, 168 h, read-out: A549 SMARCA2 IC50
Summary of the method: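 Seven-day growth of A549 (62.5 cells/well, F12K with 10% HI-FBS, 37° C.) with compound, read by CellTiter-Glo ATP luminescence. Percent inhibition scaled between DMSO wells and 10 μM Doxorubicin wells, then fitted for EC50 and IC50.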

[2] = FL-SMARCA4 IC50, Table 3.2, ATPase assay, enzyme 5 nM, ATP 250 uM, chicken mononucleosome 10 nM, 30 min preincubation
[3] = FL-SMARCA4 IC>50, Table 3c.2, ATPase assay, enzyme 5 nM, ATP 250 uM, chicken mononucleosome 10 nM, 30 min preincubation
[4] = Table 3d.1, read-out: FL-SMARCA2 IC>50

Chain of FL-SMARCA4 (P51532 whole entry): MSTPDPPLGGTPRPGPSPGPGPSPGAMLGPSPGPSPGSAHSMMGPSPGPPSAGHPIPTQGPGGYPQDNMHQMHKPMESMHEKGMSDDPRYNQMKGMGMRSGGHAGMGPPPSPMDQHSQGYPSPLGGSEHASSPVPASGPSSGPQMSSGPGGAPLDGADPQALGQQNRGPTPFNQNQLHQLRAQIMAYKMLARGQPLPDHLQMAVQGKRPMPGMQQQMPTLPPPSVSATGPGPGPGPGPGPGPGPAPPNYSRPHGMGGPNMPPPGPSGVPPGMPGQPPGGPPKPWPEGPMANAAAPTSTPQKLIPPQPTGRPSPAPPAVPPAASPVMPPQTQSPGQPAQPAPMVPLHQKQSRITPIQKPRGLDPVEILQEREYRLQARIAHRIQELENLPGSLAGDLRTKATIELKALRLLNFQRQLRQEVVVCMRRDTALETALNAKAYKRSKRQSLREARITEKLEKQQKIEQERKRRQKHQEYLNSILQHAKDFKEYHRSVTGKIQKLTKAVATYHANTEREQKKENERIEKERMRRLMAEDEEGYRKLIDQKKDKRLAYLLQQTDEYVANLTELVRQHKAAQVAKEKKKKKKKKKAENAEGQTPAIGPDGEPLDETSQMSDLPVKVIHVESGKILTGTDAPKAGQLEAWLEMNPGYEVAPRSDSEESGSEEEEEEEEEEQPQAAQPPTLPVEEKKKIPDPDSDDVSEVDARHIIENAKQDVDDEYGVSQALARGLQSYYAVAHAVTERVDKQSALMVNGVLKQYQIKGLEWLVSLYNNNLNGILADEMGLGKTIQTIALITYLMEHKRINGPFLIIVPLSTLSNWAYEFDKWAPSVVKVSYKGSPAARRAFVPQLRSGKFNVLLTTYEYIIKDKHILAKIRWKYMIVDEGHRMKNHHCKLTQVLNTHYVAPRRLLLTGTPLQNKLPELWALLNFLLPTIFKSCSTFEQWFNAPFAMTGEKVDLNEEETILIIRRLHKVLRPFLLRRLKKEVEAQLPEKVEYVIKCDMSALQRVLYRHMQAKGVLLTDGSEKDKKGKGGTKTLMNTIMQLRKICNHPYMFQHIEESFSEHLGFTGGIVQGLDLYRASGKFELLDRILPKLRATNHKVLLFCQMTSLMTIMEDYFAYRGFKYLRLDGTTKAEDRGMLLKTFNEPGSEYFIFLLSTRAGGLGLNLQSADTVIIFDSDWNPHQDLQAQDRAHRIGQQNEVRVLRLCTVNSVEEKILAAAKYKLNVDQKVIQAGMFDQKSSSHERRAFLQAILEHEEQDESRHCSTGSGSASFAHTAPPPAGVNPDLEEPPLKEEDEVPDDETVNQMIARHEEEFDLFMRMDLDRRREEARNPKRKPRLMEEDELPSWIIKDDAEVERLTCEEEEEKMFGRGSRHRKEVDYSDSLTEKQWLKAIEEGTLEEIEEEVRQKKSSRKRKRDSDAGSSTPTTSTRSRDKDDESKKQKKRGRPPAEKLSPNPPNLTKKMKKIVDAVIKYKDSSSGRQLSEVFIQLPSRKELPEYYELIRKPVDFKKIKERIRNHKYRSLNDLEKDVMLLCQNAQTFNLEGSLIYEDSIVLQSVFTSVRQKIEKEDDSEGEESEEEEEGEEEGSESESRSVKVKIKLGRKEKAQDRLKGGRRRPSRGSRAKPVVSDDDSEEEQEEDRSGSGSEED

Structure (SMILES) | pIC50 (FL-SMARCA4; [2]) | pIC50 (SMARCA2) | pIC50 ([1]; Table 3.1) | pIC50 (H358 cells) | pIC50 (FL-SMARCA4; [3]) | pIC50 (A549 cells) | pIC50 ([1]; Table 3c.1) | pIC50 (FL-SMARCA4; FL-SMARCA4 IC50) | pIC50 [1, 4]
CCn1cc(NC(=O)c2cc(Cl)c(Cl)n2C)ccc1=O [Compound 1] | 4.40 | 5.15 | 5.56 | – | – | – | – | – | –
CCn1cc(NC(=O)c2cc(Cl)c(C#N)s2)cc(F)c1=O [Compound 128] | 6.79 | 6.65 | 7.10 | – | – | – | – | – | –
N#Cc1sc(C(=O)Nc2cc(Cl)c(=O)n(CC(F)(F)F)c2)cc1Cl [Compound 131] | 6.52 | 6.77 | 6.95 | – | – | – | – | – | –
CCn1cc(NC(=O)c2cnc(C#N)s2)cc(Cl)c1=O [Compound 136] | 6.73 | 7.54 | 7.24 | – | – | – | – | – | –
O=C(Nc1cc(F)c(=O)n(CC(F)F)c1)c1cc(C#Cc2cocn2)c(Cl)s1 [Compound 136c] | – | – | – | < 5.00 | 6.93 | 6.13 | 7.58 | – | –
C[C@]1(C#Cc2cc(C(=O)Nc3cc(F)c(=O)n(CC(F)F)c3)sc2Cl)C[C@@H](O)C1 [Compound 136d] | – | – | – | < 5.00 | – | 5.65 | – | 7.07 | 7.38
N#Cc1ncc(C(=O)Nc2cc(Cl)c(=O)n(CC(F)(F)F)c2)s1 [Compound 137] | 6.95 | 7.54 | 7.59 | – | – | – | – | – | –
N#Cc1cc(C(=O)Nc2cc(C(N)=O)c(=O)n(CC(F)F)c2)sc1C(F)(F)F [Compound 137d] | – | – | – | < 5.00 | – | < 5.00 | – | < 4.30 | < 4.30
CC(N)C#Cc1cc(C(=O)Nc2cc(F)c(=O)n(CC(F)F)c2)sc1Cl (centres unmarked) [Compound 138d] | – | – | – | < 5.00 | – | < 5.00 | – | 5.34 | 5.77
Cc1nsc(C#Cc2cc(C(=O)Nc3cc(F)c(=O)n(CC(F)F)c3)sc2Cl)n1 [Compound 139c] | – | – | – | 6.26 | 6.73 | 6.19 | 7.22 | – | –
CC(N)CC#Cc1cc(C(=O)Nc2cc(F)c(=O)n(CC(F)F)c2)sc1Cl (centres unmarked) [Compound 139d] | – | – | – | < 5.00 | – | < 5.00 | – | 5.17 | 5.51
O=C1Cc2ccc(C#Cc3cc(C(=O)Nc4cc(F)c(=O)n(CC(F)F)c4)sc3Cl)cc2N1 [Compound 140c] | – | – | – | < 5.00 | 7.20 | < 5.00 | 7.47 | – | –
CN1CCCC(C#Cc2cc(C(=O)Nc3cc(F)c(=O)n(CC(F)F)c3)sc2Cl)C1 (centres unmarked) [Compound 140d] | – | – | – | < 5.00 | – | 5.14 | – | 5.75 | 6.11
O=C(Nc1cc(F)c(=O)n(CC(F)(F)F)c1)c1cc(Cl)c(Cl)s1 [Compound 141] | 6.45 | 6.40 | 7.03 | – | – | – | – | – | –
Cc1nc2cc(C#Cc3cc(C(=O)Nc4cc(F)c(=O)n(CC(F)F)c4)sc3Cl)ccc2[nH]1 [Compound 141c] | – | – | – | < 5.00 | 7.22 | 5.22 | 7.55 | – | –
O=C1Cc2c(C#Cc3cc(C(=O)Nc4cc(F)c(=O)n(CC(F)F)c4)sc3Cl)cccc2N1 [Compound 142c] | – | – | – | 5.33 | 6.92 | 5.49 | 7.30 | – | –
O=C(Nc1cc(F)c(=O)n(CC(F)(F)F)c1)c1cnc(Cl)s1 [Compound 143] | 6.48 | 6.77 | 6.92 | – | – | – | – | – | –

Structure (SMILES) | pIC50 (FL-SMARCA4; [2]) | pIC50 (SMARCA2) | pIC50 ([1]; Table 3.1) | pIC50 (H358 cells) | pIC50 (FL-SMARCA4; [3]) | pIC50 (A549 cells) | pIC50 ([1]; Table 3c.1) | pIC50 (FL-SMARCA4; FL-SMARCA4 IC50) | pIC50 [1, 4]
CC(=O)Nc1cc(C#Cc2cc(C(=O)Nc3cc(F)c(=O)n(CC(F)F)c3)sc2Cl)ccn1 [Compound 143c] | – | – | – | < 5.00 | 8.09 | 6.34 | 8.22 | – | –
Cn1ccc(C#Cc2cc(C(=O)Nc3cc(F)c(=O)n(CC(F)F)c3)sc2Cl)n1 [Compound 144c] | – | – | – | < 5.00 | 7.16 | 5.77 | 7.70 | – | –
O=C(Nc1cc(F)c(=O)n(CC(F)F)c1)c1cc(C#Cc2ccc3c(c2)C(=O)NC3)c(Cl)s1 [Compound 145c] | – | – | – | < 5.00 | 6.68 | < 5.00 | 7.09 | – | –
CN1CCn2cc(C#Cc3cc(C(=O)Nc4cc(F)c(=O)n(CC(F)F)c4)sc3Cl)nc2C1 [Compound 146c] | – | – | – | < 5.00 | 4.82 | < 5.00 | 5.02 | – | –
O=C(Nc1cc(F)c(=O)n(CC(F)F)c1)c1cc(C#Cc2cn3c(n2)CNCC3)c(Cl)s1 [Compound 147c] | – | – | – | < 5.00 | 5.10 | < 5.00 | 5.28 | – | –
CN(C)Cc1ncc(C#Cc2cc(C(=O)Nc3cc(F)c(=O)n(CC(F)F)c3)sc2Cl)n1C [Compound 148c] | – | – | – | < 5.00 | 6.36 | 5.37 | 6.83 | – | –
CN(C)Cc1cc(C#Cc2cc(C(=O)Nc3cc(F)c(=O)n(CC(F)F)c3)sc2Cl)n(C)n1 [Compound 149c] | – | – | – | < 5.00 | 4.79 | < 5.00 | 5.10 | – | –
N#Cc1cc(C#Cc2cc(C(=O)Nc3cc(F)c(=O)n(CC(F)F)c3)sc2Cl)ccn1 [Compound 151c] | – | – | – | 5.31 | 6.96 | 6.05 | 7.53 | – | –
O=C1CCC(C#Cc2cc(C(=O)Nc3cc(F)c(=O)n(CC(F)F)c3)sc2Cl)CN1 (centres unmarked) [Compound 153c] | – | – | – | 5.16 | 6.36 | < 5.00 | 6.68 | – | –
CNC(=O)c1cc(C#Cc2cc(C(=O)Nc3cc(F)c(=O)n(CC(F)F)c3)sc2Cl)nn1C [Compound 154c] | – | – | – | < 5.00 | 6.83 | < 5.00 | 7.15 | – | –
O=C(Nc1cc(C2COC2)c(=O)n(CC(F)F)c1)c1cc(F)c(Cl)s1 [Compound 155c] | – | – | – | < 5.00 | 4.44 | < 5.00 | 4.51 | – | –
N#Cc1sc(C(=O)Nc2cc(F)c(=O)n(CC(F)F)c2)cc1C#CC1COC1 [Compound 177c] | – | – | – | < 5.00 | 7.10 | 5.86 | 7.90 | – | –
O=C(Nc1cc(F)c(=O)n(CC(F)F)c1)c1cnc(C(F)(F)F)s1 [Compound 297, N-(1-(2,2-difluoroethyl)-5-fluoro-6-oxo-1,6-dihydropyridin-3-yl)-2-(trifluoromethyl)thiazole-5-carboxamide] | 6.35 | – | 7.12 | < 5.00 | – | 5.68 | – | – | –
C#Cc1cc(NC(=O)c2cc(F)c(Cl)s2)cn(CC(F)F)c1=O [Compound 342] | 6.13 | – | 6.56 | < 5.00 | – | 5.02 | – | – | –
O=C(Nc1cc(F)c(=O)n(CC(F)F)c1)c1cc(C#CC2COC2)c(Cl)s1 [Compound 343] | 6.97 | – | 7.64 | < 5.00 | – | 6.31 | – | – | –
O=C(Nc1cc(F)c(=O)n(CC(F)F)c1)c1cc(C#Cc2cncnc2)c(Cl)s1 [Compound 346] | 6.22 | – | 6.74 | < 5.00 | – | 5.28 | – | – | –
